Measured values: ChEMBL document CHEMBL5614372, “Advances in dual-targeting inhibitors of HDAC6 for cancer treatment” (Eur J Med Chem, 2024)
pIC50, pKi: −log10 of the molar value. Each block holds one compound with its values, some of them ahead of it.

Columns and labels:
Histone deacetylase 3 [1] = biological target: T1, Histone deacetylase 3 (Homo sapiens, UniProt O15379); assay: Inhibition of HDAC3 (unknown origin)
Histone deacetylase 1 = Histone deacetylase 1 (Homo sapiens, UniProt Q13547); assay: Inhibition of HDAC1 (unknown origin)
Histone deacetylase 1, sequence (Q13547 whole entry): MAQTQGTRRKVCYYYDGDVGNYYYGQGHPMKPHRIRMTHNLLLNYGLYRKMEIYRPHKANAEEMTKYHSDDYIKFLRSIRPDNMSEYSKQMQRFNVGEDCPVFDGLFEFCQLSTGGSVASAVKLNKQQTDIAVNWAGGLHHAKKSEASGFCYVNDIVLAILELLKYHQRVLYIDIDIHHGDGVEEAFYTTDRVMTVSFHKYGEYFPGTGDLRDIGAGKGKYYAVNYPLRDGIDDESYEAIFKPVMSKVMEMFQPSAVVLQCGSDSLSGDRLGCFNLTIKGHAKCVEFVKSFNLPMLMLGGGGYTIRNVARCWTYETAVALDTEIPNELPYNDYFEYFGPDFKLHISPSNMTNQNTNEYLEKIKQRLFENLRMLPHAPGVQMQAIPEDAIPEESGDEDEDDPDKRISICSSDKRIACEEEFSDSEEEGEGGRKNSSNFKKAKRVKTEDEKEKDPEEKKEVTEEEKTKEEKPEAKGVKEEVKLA

[2] = biological target: T2, Protein deacetylase HDAC6 (Homo sapiens, UniProt Q9UBN7); assay: Inhibition of HDAC6 (unknown origin)
T2 sequence (Q9UBN7 whole entry): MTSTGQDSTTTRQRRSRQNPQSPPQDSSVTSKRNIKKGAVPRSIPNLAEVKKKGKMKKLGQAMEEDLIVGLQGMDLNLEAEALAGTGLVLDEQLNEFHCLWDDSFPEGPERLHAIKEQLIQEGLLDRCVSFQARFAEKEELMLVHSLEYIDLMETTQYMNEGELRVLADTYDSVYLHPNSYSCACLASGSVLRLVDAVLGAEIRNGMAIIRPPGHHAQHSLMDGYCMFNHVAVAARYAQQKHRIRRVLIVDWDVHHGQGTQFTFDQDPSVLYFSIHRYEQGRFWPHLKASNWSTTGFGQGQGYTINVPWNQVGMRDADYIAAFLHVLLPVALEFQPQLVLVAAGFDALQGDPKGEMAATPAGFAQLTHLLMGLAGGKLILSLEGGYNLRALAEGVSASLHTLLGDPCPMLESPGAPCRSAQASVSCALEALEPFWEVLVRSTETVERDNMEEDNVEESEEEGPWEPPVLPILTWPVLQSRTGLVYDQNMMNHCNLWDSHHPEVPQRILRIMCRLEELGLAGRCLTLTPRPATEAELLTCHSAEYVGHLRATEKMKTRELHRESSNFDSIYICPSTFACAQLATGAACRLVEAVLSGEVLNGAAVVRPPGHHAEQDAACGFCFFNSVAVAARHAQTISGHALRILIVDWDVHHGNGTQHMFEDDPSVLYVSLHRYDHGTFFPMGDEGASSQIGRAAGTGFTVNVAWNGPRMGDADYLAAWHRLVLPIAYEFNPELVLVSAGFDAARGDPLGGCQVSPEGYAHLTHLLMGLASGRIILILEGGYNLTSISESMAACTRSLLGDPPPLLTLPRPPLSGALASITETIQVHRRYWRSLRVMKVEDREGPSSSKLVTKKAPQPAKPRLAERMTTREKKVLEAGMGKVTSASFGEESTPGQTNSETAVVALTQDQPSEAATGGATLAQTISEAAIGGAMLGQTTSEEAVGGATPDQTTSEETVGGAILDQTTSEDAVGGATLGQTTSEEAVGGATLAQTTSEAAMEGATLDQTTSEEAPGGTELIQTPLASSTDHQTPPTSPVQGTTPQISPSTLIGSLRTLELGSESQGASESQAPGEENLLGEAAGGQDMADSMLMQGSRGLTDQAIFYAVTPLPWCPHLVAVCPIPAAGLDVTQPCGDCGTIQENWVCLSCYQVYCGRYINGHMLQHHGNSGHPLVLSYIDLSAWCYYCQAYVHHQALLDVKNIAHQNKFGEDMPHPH

Histone deacetylase 8 = biological target: T3, Histone deacetylase 8 (Homo sapiens, UniProt Q9BY41); assay: Inhibition of HDAC8 (unknown origin)
T3 sequence (Q9BY41 whole entry): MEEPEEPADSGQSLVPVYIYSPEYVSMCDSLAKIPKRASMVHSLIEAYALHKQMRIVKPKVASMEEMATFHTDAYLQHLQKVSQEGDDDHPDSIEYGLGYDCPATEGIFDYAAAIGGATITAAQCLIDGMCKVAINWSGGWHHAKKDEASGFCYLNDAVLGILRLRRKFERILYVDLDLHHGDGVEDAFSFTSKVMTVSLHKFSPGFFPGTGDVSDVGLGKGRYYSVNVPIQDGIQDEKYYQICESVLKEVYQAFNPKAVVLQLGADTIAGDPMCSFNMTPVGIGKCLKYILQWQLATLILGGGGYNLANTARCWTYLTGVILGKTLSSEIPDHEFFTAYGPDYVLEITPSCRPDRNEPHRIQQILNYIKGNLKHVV

Histone deacetylase 2 = Histone deacetylase 2 (Homo sapiens, UniProt Q92769); assay: Inhibition of HDAC2 (unknown origin)
Histone deacetylase 2, sequence (Q92769 whole entry): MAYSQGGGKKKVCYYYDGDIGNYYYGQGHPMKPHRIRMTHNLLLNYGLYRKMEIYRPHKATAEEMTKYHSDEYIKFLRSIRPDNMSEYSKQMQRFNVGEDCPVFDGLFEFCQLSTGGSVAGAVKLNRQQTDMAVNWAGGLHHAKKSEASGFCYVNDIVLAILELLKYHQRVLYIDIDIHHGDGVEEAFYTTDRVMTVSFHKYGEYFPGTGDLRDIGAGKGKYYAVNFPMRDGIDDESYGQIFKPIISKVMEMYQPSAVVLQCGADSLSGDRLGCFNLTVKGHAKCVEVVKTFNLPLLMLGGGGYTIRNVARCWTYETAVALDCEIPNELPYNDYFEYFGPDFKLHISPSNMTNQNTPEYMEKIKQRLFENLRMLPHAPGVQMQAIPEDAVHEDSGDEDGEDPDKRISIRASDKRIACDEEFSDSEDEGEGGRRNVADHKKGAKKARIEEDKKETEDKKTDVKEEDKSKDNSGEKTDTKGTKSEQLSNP

[3] = biological target: Serine/threonine-protein kinase PAK 1 (Homo sapiens, UniProt Q13153); assay: Inhibition of PAK1 (unknown origin)
[4] = biological target: Serine/threonine-protein kinase PAK 2 (Homo sapiens, UniProt Q13177); assay: Inhibition of PAK2 (unknown origin)
[5] = biological target: Serine/threonine-protein kinase PAK 3 (Homo sapiens, UniProt O75914); assay: Inhibition of PAK3 (unknown origin)
[6] = biological target: High affinity cGMP-specific 3',5'-cyclic phosphodiesterase 9A (Homo sapiens, UniProt O76083); assay: Inhibition of PDE9A (unknown origin)
[7] = biological target: cGMP-specific 3',5'-cyclic phosphodiesterase (Homo sapiens, UniProt O76074); assay: Inhibition of PDE5A (unknown origin)
[8] = biological target: Steroid 17-alpha-hydroxylase/17,20 lyase (Homo sapiens, UniProt P05093); assay: Inhibition of CYP17A1 (unknown origin); assay type: ADME
Steroid 17-alpha-hydroxylase/17,20 lyase, sequence (P05093 whole entry): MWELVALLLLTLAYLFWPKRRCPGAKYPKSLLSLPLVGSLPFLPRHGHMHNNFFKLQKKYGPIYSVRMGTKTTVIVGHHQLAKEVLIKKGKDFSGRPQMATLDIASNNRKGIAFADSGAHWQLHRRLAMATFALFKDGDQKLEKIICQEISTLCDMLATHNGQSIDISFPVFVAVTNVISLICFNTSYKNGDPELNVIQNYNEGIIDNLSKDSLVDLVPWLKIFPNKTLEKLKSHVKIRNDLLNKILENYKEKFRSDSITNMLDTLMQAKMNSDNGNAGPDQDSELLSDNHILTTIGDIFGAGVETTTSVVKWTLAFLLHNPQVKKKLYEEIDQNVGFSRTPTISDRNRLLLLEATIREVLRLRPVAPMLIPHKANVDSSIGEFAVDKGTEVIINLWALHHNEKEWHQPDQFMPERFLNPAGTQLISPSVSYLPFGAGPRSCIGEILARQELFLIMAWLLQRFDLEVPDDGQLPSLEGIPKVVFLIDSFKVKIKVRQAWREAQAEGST

Histone deacetylase 4 [9] = biological target: T4, Histone deacetylase 4 (Homo sapiens, UniProt P56524); assay: Inhibition of HDAC4 (unknown origin)
T4 sequence (P56524 whole entry): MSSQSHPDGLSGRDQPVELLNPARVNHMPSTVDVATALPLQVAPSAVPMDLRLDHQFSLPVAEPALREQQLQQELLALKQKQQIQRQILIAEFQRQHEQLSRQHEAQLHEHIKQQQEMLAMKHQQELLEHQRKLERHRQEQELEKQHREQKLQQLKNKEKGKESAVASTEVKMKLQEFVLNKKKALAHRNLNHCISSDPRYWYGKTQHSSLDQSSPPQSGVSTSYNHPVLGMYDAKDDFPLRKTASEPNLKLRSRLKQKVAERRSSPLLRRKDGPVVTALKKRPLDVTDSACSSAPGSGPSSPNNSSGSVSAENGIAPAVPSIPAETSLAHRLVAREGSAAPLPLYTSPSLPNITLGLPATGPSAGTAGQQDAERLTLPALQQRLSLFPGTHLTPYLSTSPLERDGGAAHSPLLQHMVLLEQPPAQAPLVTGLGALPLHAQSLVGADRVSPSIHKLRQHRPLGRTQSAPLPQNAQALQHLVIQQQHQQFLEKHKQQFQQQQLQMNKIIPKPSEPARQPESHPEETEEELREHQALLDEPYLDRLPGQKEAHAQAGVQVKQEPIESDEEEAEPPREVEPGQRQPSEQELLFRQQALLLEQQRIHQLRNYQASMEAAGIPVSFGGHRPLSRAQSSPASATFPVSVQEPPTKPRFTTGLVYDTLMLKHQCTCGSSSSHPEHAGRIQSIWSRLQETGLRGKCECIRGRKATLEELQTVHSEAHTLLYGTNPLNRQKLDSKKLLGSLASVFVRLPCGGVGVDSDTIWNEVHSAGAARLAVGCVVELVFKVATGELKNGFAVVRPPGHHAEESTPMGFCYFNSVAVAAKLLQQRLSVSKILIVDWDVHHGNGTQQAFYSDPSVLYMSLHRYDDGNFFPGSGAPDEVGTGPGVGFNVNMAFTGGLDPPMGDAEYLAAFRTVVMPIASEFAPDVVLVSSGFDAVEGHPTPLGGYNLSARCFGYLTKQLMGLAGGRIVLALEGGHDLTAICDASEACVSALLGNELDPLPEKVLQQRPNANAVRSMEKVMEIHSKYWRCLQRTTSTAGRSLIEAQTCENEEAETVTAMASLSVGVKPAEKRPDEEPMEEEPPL

Histone deacetylase 5 [10] = biological target: T5, Histone deacetylase 5 (Homo sapiens, UniProt Q9UQL6); assay: Inhibition of HDAC5 (unknown origin)
T5 sequence (Q9UQL6 whole entry): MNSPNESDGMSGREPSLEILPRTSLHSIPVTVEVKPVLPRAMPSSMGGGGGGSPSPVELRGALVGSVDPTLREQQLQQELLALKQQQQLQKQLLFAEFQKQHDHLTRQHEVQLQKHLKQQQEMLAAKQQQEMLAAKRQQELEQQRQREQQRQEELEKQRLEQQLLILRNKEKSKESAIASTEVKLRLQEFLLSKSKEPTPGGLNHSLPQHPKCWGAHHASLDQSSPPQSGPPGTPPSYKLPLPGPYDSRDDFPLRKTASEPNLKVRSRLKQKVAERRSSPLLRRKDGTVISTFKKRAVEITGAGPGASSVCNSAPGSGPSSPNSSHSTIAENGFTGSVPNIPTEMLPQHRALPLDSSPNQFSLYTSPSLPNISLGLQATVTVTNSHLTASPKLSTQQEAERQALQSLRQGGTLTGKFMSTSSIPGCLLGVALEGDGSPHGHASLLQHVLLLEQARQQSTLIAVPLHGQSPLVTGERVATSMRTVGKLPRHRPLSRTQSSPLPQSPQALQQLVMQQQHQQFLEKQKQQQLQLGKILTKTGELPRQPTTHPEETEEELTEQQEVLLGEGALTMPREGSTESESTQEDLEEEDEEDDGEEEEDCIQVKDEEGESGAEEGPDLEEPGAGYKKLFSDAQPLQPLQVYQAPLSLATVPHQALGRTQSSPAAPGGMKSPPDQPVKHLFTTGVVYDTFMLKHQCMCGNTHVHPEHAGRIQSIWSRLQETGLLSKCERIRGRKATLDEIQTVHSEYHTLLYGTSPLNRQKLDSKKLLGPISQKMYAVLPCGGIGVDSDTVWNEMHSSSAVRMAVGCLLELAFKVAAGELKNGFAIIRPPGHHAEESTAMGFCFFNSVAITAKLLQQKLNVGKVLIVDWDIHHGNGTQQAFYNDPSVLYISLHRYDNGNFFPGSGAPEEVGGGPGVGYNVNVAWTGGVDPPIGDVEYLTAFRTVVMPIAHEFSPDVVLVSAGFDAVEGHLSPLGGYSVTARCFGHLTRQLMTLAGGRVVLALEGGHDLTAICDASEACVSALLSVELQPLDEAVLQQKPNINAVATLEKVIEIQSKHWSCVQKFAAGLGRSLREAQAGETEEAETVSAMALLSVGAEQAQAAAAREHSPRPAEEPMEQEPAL

Histone deacetylase 7 [11] = biological target: T6, Histone deacetylase 7 (Homo sapiens, UniProt Q8WUI4); assay: Inhibition of HDAC7 (unknown origin)
T6 sequence (Q8WUI4 whole entry): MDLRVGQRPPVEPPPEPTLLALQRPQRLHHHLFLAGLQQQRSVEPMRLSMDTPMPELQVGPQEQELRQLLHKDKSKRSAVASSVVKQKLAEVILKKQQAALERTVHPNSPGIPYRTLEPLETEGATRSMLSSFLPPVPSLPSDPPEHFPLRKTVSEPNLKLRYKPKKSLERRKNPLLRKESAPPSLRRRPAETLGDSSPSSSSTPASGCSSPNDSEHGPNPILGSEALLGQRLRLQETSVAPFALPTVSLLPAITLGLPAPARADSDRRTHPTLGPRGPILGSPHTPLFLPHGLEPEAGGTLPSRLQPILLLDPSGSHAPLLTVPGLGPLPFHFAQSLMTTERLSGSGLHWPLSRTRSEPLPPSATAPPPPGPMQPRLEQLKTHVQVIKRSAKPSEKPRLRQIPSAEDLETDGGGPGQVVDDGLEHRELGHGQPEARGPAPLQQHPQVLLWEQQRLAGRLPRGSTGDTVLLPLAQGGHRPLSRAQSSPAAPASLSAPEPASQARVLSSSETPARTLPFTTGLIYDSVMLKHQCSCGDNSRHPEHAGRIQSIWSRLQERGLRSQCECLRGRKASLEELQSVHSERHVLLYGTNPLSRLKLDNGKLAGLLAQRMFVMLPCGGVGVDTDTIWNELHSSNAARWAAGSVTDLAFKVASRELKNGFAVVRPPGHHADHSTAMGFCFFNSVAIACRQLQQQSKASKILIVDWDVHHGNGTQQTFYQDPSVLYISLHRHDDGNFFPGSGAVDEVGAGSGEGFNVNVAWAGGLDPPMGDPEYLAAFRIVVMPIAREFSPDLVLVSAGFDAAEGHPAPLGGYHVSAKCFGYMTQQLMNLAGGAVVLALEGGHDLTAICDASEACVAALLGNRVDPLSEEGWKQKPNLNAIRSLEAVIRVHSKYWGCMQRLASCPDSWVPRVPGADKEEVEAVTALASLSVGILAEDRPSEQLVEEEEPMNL

Histone deacetylase 9 = Histone deacetylase 9 (Homo sapiens, UniProt Q9UKV0); assay: Inhibition of HDAC9 (unknown origin)
[12] = biological target: Glutamate [NMDA] receptor; assay: Binding affinity to NMDA receptor (unknown origin) assessed as inhibition constant; assay type: protein-complex assay, Homo sapiens
[13] = biological target: Glutamate [NMDA] receptor (Homo sapiens) (UniProt Q05586+Q12879+Q13224+O15399+O60391+Q14957+Q8TCU5); assay: Inhibition of NMDA receptor (unknown origin) at 10 uM relative to control; assay type: protein-complex assay
[14] = Inhibition of HSP90 (unknown origin) by fluorescence polarization assay; design: species or system Homo sapiens
[15] = biological target: Estrogen receptor (Homo sapiens) (UniProt P03372); assay: Binding affinity to ERalpha (unknown origin) assessed as relative binding affinity by fluorescence polarization assay relative to control
[16] = biological target: Estrogen receptor beta (Homo sapiens) (UniProt Q92731); assay: Binding affinity to ERbeta (unknown origin) assessed as relative binding affinity by fluorescence polarization assay relative to control
[17] = biological target: T2, Protein deacetylase HDAC6; assay: Inhibition of HDAC6 (unknown origin) extracted from baculovirus infected Sf9 insect cells using fluorescent peptide p53 (379 to 382 residues) RHKK(Ac)AMC as substrate by fluorescence based analysis
[18] = biological target: ALK tyrosine kinase receptor (Homo sapiens, UniProt Q9UM73); assay: Inhibition of ALK (unknown origin) using poly[Glu:Tyr] (4:1) as substrate incubated for 2 hrs by [gamma-33P]ATP assay
A549 = assay: Antitumor activity against human A549 cells xenografted in BALB/c nude mouse assessed as inhibition of tumor growth at 20 mg/kg, ip administered once daily for 21 days relative to control; assay type: functional; design: scale not given: the % may be the effect or the level left; settings: time 21 day
[19] = biological target: Serine/threonine-protein kinase B-raf (Homo sapiens, UniProt P15056); assay: Inhibition of wild type B-RAF (unknown origin)
Histone deacetylase 3 [20] = biological target: T1, Histone deacetylase 3; assay: Inhibition of human recombinant HDAC3 using fluorogenic HDAC substrate incubated for 20 mins by fluorescence based assay
Histone deacetylase 4 [21] = biological target: T4, Histone deacetylase 4; assay: Inhibition of human recombinant HDAC4 using fluorogenic HDAC substrate incubated for 20 mins by fluorescence based assay
Histone deacetylase 5 [22] = biological target: T5, Histone deacetylase 5; assay: Inhibition of human recombinant HDAC5 using fluorogenic HDAC substrate incubated for 20 mins by fluorescence based assay
[23] = biological target: T2, Protein deacetylase HDAC6; assay: Inhibition of human recombinant HDAC6 using fluorogenic HDAC substrate incubated for 20 mins by fluorescence based assay
Histone deacetylase 7 [24] = biological target: T6, Histone deacetylase 7; assay: Inhibition of human recombinant HDAC7 using fluorogenic HDAC substrate incubated for 20 mins by fluorescence based assay
Histone deacetylase 11 = Histone deacetylase 11 (Homo sapiens, UniProt Q96DB2); assay: Inhibition of HDAC11 (unknown origin)
[25] = biological target: Phosphatidylinositol 4,5-bisphosphate 3-kinase catalytic subunit beta isoform (Homo sapiens, UniProt P42338); assay: Inhibition of PI3Kbeta (unknown origin)
[26] = biological target: Phosphatidylinositol 4,5-bisphosphate 3-kinase catalytic subunit delta isoform (Homo sapiens, UniProt O00329); assay: Inhibition of PI3Kdelta (unknown origin)
[27] = biological target: Phosphatidylinositol 4,5-bisphosphate 3-kinase catalytic subunit gamma isoform (Homo sapiens, UniProt P48736); assay: Inhibition of PI3Kgamma (unknown origin)

T1 sequence (O15379 whole entry): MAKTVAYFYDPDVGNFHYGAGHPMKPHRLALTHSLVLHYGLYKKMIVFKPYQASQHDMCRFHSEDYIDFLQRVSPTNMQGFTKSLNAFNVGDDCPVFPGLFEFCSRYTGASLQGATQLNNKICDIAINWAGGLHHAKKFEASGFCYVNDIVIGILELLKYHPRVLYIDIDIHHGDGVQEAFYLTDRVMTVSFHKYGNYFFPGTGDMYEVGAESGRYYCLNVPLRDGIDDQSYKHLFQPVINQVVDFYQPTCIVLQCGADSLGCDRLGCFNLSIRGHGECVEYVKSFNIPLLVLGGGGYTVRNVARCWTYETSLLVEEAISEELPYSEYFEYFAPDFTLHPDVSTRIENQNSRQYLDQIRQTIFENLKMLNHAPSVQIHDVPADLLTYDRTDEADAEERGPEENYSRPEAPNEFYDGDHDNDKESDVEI

pIC50 (Histone deacetylase 3 [1]): 5.60
SMILES: CCCCN(Cc1ccc(C(=O)NO)cc1)C(=O)CCCCn1cc(COc2cccc(Cc3cnc(NC(=O)CSc4nc(C)cc(C)n4)s3)c2)nn1

pIC50 (Histone deacetylase 3 [1]): 6.75
pIC50 (Histone deacetylase 1): 6.63
pIC50 [2]: 7.42
pIC50 (Histone deacetylase 8): 6.72
pIC50 (Histone deacetylase 2): 6.80
pIC50 [3]: 7.87
pIC50 [4]: 6.72
pIC50 [5]: 6.36
SMILES: O=C(CCCCCn1c(=O)c(-c2ccc(Cl)cc2Cl)cc2cnc(NC3CC3)nc21)NO

pIC50 (Histone deacetylase 1): 6.23
pIC50 [2]: 7.40
pIC50 (Histone deacetylase 2): 5.45
pIC50 [6]: 6.97
pIC50 [7]: < 5.00
SMILES: C[C@@H]1CN(Cc2ccc(C(=O)NO)cc2)C[C@H]1c1nc2c(cnn2C2CCOCC2)c(=O)[nH]1

pIC50 [2]: 6.22
pIC50 (Histone deacetylase 8): < 5.00
pIC50 [8]: 6.55
SMILES: C[C@]12CC[C@H](OC(=O)CCCCCC(=O)NO)CC1=CCC1C2CC[C@]2(C)C(c3cccnc3)=CCC12 (some centres not stated)

pIC50 (Histone deacetylase 3 [1]): 5.66
pIC50 (Histone deacetylase 1): 5.57
pIC50 (Histone deacetylase 4 [9]): < 5.00
pIC50 (Histone deacetylase 8): 6.21
pIC50 (Histone deacetylase 2): 5.10
pIC50 (Histone deacetylase 5 [10]): < 5.00
pIC50 (Histone deacetylase 7 [11]): < 5.00
pIC50 (Histone deacetylase 9): < 5.00
pKi [12]: 6.25
inhibition [13]: 64.4%
SMILES: CC12CC3CC(C)(C1)CC(NC(=O)/C=C/c1ccc(C(=O)NO)cc1)(C3)C2

pIC50 [14]: 7.21
SMILES: CC(C)c1cc(C(=O)N(C)Cc2ccc(C(=O)NO)cc2)c(O)cc1O

pIC50 [6]: 7.49
SMILES: C[C@H](c1nc2c(cnn2C2CCCC2)c(=O)[nH]1)N1CC(Oc2ncccn2)C1

RBA [15]: 0.005%
RBA [16]: 0.25%
SMILES: N#CC(C#N)=C1C=C(/C=C/c2ccc(O)c(NC(=O)CCCCCCC(=O)NO)c2)Oc2ccccc21

pIC50 [17]: 5.99
pIC50 [18]: 7.80
SMILES: CC(C)NC(=O)[C@H]1CC[C@@H](n2/c(=N/C(=O)c3ccccc3)[nH]c3cc(/C=C/C(=O)NO)ccc32)CC1
Activity (A549): 80%

pIC50 [19]: 8.40
pIC50 (Histone deacetylase 3 [20]): 6.03
pIC50 (Histone deacetylase 4 [21]): < 4.00
pIC50 (Histone deacetylase 5 [22]): < 4.28
pIC50 [23]: 7.30
pIC50 (Histone deacetylase 7 [24]): 5.52
SMILES: CC(C)(C)c1nc(-c2cccc(NS(=O)(=O)c3c(F)cccc3F)c2F)c(-c2ccnc(NCCCCCCC(=O)NO)n2)s1

pIC50 (Histone deacetylase 1): < 5.52
pIC50 (Histone deacetylase 4 [9]): < 5.52
pIC50 (Histone deacetylase 8): 7.17
pIC50 (Histone deacetylase 11): < 5.52
pIC50 [25]: 7.14
pIC50 [26]: 7.14
pIC50 [27]: 5.89
SMILES: O=C(NO)c1ccc(/C=N/NC(=O)c2cc(N3CCOCC3)nc(-c3cccc(O)c3)n2)cc1
